# Data reported in PubChem BioAssay AID256 (DTP/NCI, 2004).
# Several values for one entry are separate records, joined by “and”; a condition that tells them apart may be missing. Identical values can stand only once. Toxic doses and inconclusive results are not listed. Residues, ends and D or L forms follow the SMILES beside them. *: point of attachment. Trt = c1ccc(C(c2ccccc2)(c2ccccc2)*)cc1; Cbz = O=C(OCc1ccccc1)*; Bn = c1ccc(C*)cc1; βAla = NCCC(=O)O
# Tested on: CD2F1 mice, L1210 leukemia ip, survival T/C
# Assay: NCI In Vivo Anticancer Drug Screen. Data for tumor model L1210 Leukemia (intraperitoneal) in CD2F1 (CDF1) mice
# Conditions: higher = longer survival
# Procedure: The antitumor activity of compounds was measured in mice bearing transplantable tumors. Survival or tumor size were measured and the results are expressed as the measurement made in the treated group (T) divided by the measurement made in the vehicle treated control group (C). The tumor model used in this assay is L1210 Leukemia (intraperitoneal) in CD2F1 (CDF1) mice
# [1] = endpoint: mean survival time, dose: 100.0 mg/kg/injection, schedule: Q04DX003 (ip), vehicle: saline with Tween-80
# [2] = endpoint: mean survival time, dose: 200.0 mg/kg/injection, schedule: Q04DX003 (ip), vehicle: saline with Tween-80
# [3] = endpoint: mean survival time, dose: 400.0 mg/kg/injection, schedule: Q04DX003 (ip), vehicle: saline with Tween-80
# [4] = endpoint: mean survival time, dose: 100.0 mg/kg/injection, schedule: Q01DX001 (ip), vehicle: saline
# [5] = endpoint: mean survival time, dose: 200.0 mg/kg/injection, schedule: Q01DX001 (ip), vehicle: saline
# [6] = endpoint: mean survival time, dose: 400.0 mg/kg/injection, schedule: Q01DX001 (ip), vehicle: saline
# [7] = endpoint: mean survival time, dose: 100.0 mg/kg/injection, schedule: Q01DX009 (ip), vehicle: saline with Tween-80
# [8] = endpoint: mean survival time, dose: 200.0 mg/kg/injection, schedule: Q01DX009 (ip), vehicle: saline with Tween-80
# [9] = endpoint: mean survival time, dose: 400.0 mg/kg/injection, schedule: Q01DX009 (ip), vehicle: saline with Tween-80
# [10] = endpoint: mean survival time, dose: 25.0 mg/kg/injection, schedule: Q01DX009 (ip), vehicle: saline with Tween-80
# [11] = endpoint: mean survival time, dose: 50.0 mg/kg/injection, schedule: Q01DX009 (ip), vehicle: saline with Tween-80
structure (smiles),measurement,setting,value
COc1cc2cc3c(c(O)c2c(O)c1/C=C/C(C)C)C(=O)CC(C)(OC(C)=O)C3 (configuration not stated),T/C,"endpoint: median survival time, dose: 1.25 mg/kg/injection, schedule: Q01DX009 (ip), vehicle: Klucel (hydroxypropylcellulose) (HPC)",105 % of control
same,T/C,"endpoint: median survival time, dose: 2.5 mg/kg/injection, schedule: Q01DX009 (ip), vehicle: Klucel (hydroxypropylcellulose) (HPC)",102 % of control
same,T/C,"endpoint: median survival time, dose: 5.0 mg/kg/injection, schedule: Q01DX009 (ip), vehicle: Klucel (hydroxypropylcellulose) (HPC)",113 % of control
same,T/C,"endpoint: median survival time, dose: 10.0 mg/kg/injection, schedule: Q01DX009 (ip), vehicle: Klucel (hydroxypropylcellulose) (HPC)",116 % of control and 121 % of control
same,T/C,"endpoint: median survival time, dose: 20.0 mg/kg/injection, schedule: Q01DX009 (ip), vehicle: Klucel (hydroxypropylcellulose) (HPC)",98 % of control and 105 % of control
CC(=O)c1ccc(N=C2C=CC(=O)O2)cc1,T/C,[1],102 % of control
same,T/C,[2],96 % of control
same,T/C,[3],96 % of control
O=P(OCCCl)(OCCCl)C(Cl)(Cl)Cl,T/C,[4],103 % of control
same,T/C,[5],102 % of control
same,T/C,[6],103 % of control
CC1(C)CCC2(CC1)CC(=O)OC2=O,T/C,[7],109 % of control
same,T/C,[8],105 % of control
same,T/C,[9],100 % of control
COC(=O)C(CSC(c1ccccc1)(c1ccccc1)c1ccccc1)NC(=O)C(CSCc1ccccc1)NC(=O)CCNC(=O)OCc1ccccc1 (configuration not stated) ({Cbz-βAla}-Cys(Bn)-Cys(Trt)-OMe; configuration not given here),T/C,"endpoint: median survival time, dose: 12.5 mg/kg/injection, schedule: Q01DX009 (ip), vehicle: Klucel (hydroxypropylcellulose) (HPC)",101 % of control
same,T/C,"endpoint: median survival time, dose: 25.0 mg/kg/injection, schedule: Q01DX009 (ip), vehicle: Klucel (hydroxypropylcellulose) (HPC)",101 % of control
same,T/C,"endpoint: median survival time, dose: 50.0 mg/kg/injection, schedule: Q01DX009 (ip), vehicle: Klucel (hydroxypropylcellulose) (HPC)",101 % of control
same,T/C,"endpoint: median survival time, dose: 100.0 mg/kg/injection, schedule: Q01DX009 (ip), vehicle: Klucel (hydroxypropylcellulose) (HPC)",108 % of control
same,T/C,"endpoint: median survival time, dose: 200.0 mg/kg/injection, schedule: Q01DX009 (ip), vehicle: Klucel (hydroxypropylcellulose) (HPC)",103 % of control
Clc1ccc(OCc2sc3ccc(Cl)cc3c2CN2CCCCC2)cc1,T/C,[10],100 % of control
same,T/C,[11],97 % of control
same,T/C,[7],95 % of control
CCCC1C(=O)N2C(N(C)C)=Nc3ccc(C)cc3N2C1=O (configuration not stated),T/C,[1],94 % of control
same,T/C,[2],96 % of control
same,T/C,[3],96 % of control
O=C(C[n+]1csc2ccccc21)c1ccccc1,T/C,[7],106 % of control
same,T/C,[1],97 % of control
same,T/C,[8],92 % of control
same,T/C,[2],106 % of control
same,T/C,[9],87 % of control
same,T/C,[3],109 % of control
Cc1cc(=O)[nH]c2ccccc12,T/C,[11],96 % of control
same,T/C,[4],98 % of control
same,T/C,[7],96 % of control
same,T/C,[5],98 % of control
same,T/C,[8],103 % of control
same,T/C,[6],102 % of control
COc1ccccc1/C=C\C(=O)C1COCN1 (configuration not stated),T/C,"endpoint: mean survival time, dose: 37.5 mg/kg/injection, schedule: Q01DX009 (ip), vehicle: saline",98 % of control
same,T/C,"endpoint: mean survival time, dose: 75.0 mg/kg/injection, schedule: Q01DX009 (ip), vehicle: saline",98 % of control
same,T/C,"endpoint: mean survival time, dose: 150.0 mg/kg/injection, schedule: Q01DX009 (ip), vehicle: saline",98 % of control
CCOc1ccc(NC(=O)C2CCC(C)(C(=O)O)C2(C)C)cc1 (configuration not stated),T/C,[10],102 % of control
same,T/C,"endpoint: mean survival time, dose: 25.0 mg/kg/injection, schedule: Q04DX003 (ip), vehicle: saline with Tween-80",98 % of control
same,T/C,[11],98 % of control
same,T/C,"endpoint: mean survival time, dose: 50.0 mg/kg/injection, schedule: Q04DX003 (ip), vehicle: saline with Tween-80",100 % of control
same,T/C,[7],95 % of control
same,T/C,[1],96 % of control and 98 % of control
Cc1ccc([P+](Cc2ccccc2)(c2ccccc2)c2ccccc2)cc1,T/C,"endpoint: mean survival time, dose: 5.0 mg/kg/injection, schedule: Q01DX001 (ip), vehicle: saline",108 % of control
same,T/C,"endpoint: mean survival time, dose: 10.0 mg/kg/injection, schedule: Q01DX001 (ip), vehicle: saline",105 % of control
same,T/C,"endpoint: mean survival time, dose: 20.0 mg/kg/injection, schedule: Q01DX001 (ip), vehicle: saline",96 % of control
same,T/C,"endpoint: mean survival time, dose: 40.0 mg/kg/injection, schedule: Q01DX001 (ip), vehicle: saline",109 % of control
CC1(C)C=C(Cc2ccccc2)C(=O)c2ccccc21,T/C,[7],94 % of control
same,T/C,[1],96 % of control
same,T/C,[8],97 % of control
same,T/C,[2],100 % of control
same,T/C,[9],97 % of control
same,T/C,[3],97 % of control
C=C(Br)CNS(=O)(=O)c1ccc(OC)cc1,T/C,[7],93 % of control
same,T/C,[8],97 % of control
same,T/C,[9],96 % of control
O=NN(CCCl)C(=O)Nc1ccc2c(c1)OCO2,T/C,"endpoint: mean survival time, dose: 44.0 mg/kg/injection, schedule: Q01DX001 (ip), vehicle: other",156 % of control
same,T/C,"endpoint: mean survival time, dose: 66.0 mg/kg/injection, schedule: Q01DX001 (ip), vehicle: other",216 % of control
same,T/C,"endpoint: mean survival time, dose: 100.0 mg/kg/injection, schedule: Q01DX001 (ip), vehicle: other",277 % of control
same,T/C,"endpoint: mean survival time, dose: 150.0 mg/kg/injection, schedule: Q01DX001 (ip), vehicle: other",171 % of control
CN(C(=O)C(=O)c1ccccc1NC(=O)c1ccc(Cl)cc1)c1ccccc1,T/C,"endpoint: mean survival time, dose: 25.0 mg/kg/injection, schedule: Q04DX003 (ip), vehicle: Klucel (hydroxypropylcellulose) (HPC)",102 % of control
same,T/C,"endpoint: mean survival time, dose: 50.0 mg/kg/injection, schedule: Q04DX003 (ip), vehicle: Klucel (hydroxypropylcellulose) (HPC)",106 % of control
same,T/C,"endpoint: mean survival time, dose: 100.0 mg/kg/injection, schedule: Q04DX003 (ip), vehicle: Klucel (hydroxypropylcellulose) (HPC)",104 % of control
C=CN1CCCC1=O (tested in a mixture with another compound),T/C,[1],95 % of control
same,T/C,[2],91 % of control
same,T/C,[3],98 % of control
CC1(CCC2(C)OCCO2)OCCO1,T/C,"endpoint: mean survival time, dose: 100.0 mg/kg/injection, schedule: Q04DX002 (ip), vehicle: saline with Tween-80",93 % of control
same,T/C,"endpoint: mean survival time, dose: 200.0 mg/kg/injection, schedule: Q04DX002 (ip), vehicle: saline with Tween-80",101 % of control
same,T/C,"endpoint: mean survival time, dose: 400.0 mg/kg/injection, schedule: Q04DX002 (ip), vehicle: saline with Tween-80",93 % of control
Cc1oc(N)c(C#N)c1C,T/C,[7],101 % of control
same,T/C,[1],102 % of control
same,T/C,[8],104 % of control
same,T/C,[2],96 % of control
same,T/C,[9],106 % of control
same,T/C,[3],102 % of control
COC(=O)/C=C(/Nc1ccccc1C(=O)O)C(=O)OC,T/C,"endpoint: mean survival time, dose: 100.0 mg/kg/injection, schedule: Q04DX003 (ip), vehicle: saline",89 % of control
same,T/C,"endpoint: mean survival time, dose: 200.0 mg/kg/injection, schedule: Q04DX003 (ip), vehicle: saline",101 % of control
same,T/C,"endpoint: mean survival time, dose: 400.0 mg/kg/injection, schedule: Q04DX003 (ip), vehicle: saline",90 % of control
O=C(CCc1ccc(O)cc1)N/N=C/c1ccc2c(c1)OCO2,T/C,[1],90 % of control
same,T/C,[2],90 % of control
same,T/C,[3],88 % of control
Cn1c(=O)c2c(nc(NCCOC(=S)S)n2C)n(C)c1=O,T/C,"endpoint: mean survival time, dose: 12.5 mg/kg/injection, schedule: Q01DX005 (ip), vehicle: distilled water + Tween-80",94 % of control
same,T/C,"endpoint: mean survival time, dose: 25.0 mg/kg/injection, schedule: Q01DX005 (ip), vehicle: distilled water + Tween-80",91 % of control
same,T/C,"endpoint: mean survival time, dose: 50.0 mg/kg/injection, schedule: Q01DX005 (ip), vehicle: distilled water + Tween-80",100 % of control
CNC(=O)ON(C(C)=O)C(=O)NC,T/C,"endpoint: mean survival time, dose: 12.5 mg/kg/injection, schedule: Q01DX009 (ip), vehicle: saline",100 % of control and 107 % of control
same,T/C,"endpoint: mean survival time, dose: 25.0 mg/kg/injection, schedule: Q01DX009 (ip), vehicle: saline",107 % of control and 109 % of control
same,T/C,"endpoint: mean survival time, dose: 50.0 mg/kg/injection, schedule: Q01DX009 (ip), vehicle: saline",114 % of control and 109 % of control
CC=C(C(=O)OCC)C(=O)OCC,T/C,[4],95 % of control
same,T/C,[5],98 % of control
same,T/C,[6],107 % of control
Clc1c(Cl)c(Cl)c(CSCc2c(Cl)c(Cl)c(Cl)c(Cl)c2Cl)c(Cl)c1Cl,T/C,[7],93 % of control
same,T/C,[1],91 % of control
same,T/C,[8],96 % of control
same,T/C,[2],96 % of control
same,T/C,[9],94 % of control
same,T/C,[3],90 % of control
COc1ccc(O)c(C=O)c1,T/C,[1],100 % of control
same,T/C,[2],110 % of control
same,T/C,[3],95 % of control
COc1cccc2c1C(=O)c1c(O)c3c(c(O)c1C2=O)C[C@@](O)(C(=O)COC(=O)c1ccccc1)C[C@@H]3OC1CC(N)C(O)C(C)O1 (some centres not stated),T/C,"endpoint: mean survival time, dose: 0.5 mg/kg/injection, schedule: Q01DX009 (ip), vehicle: saline sonified",122 % of control
same,T/C,"endpoint: mean survival time, dose: 1.3 mg/kg/injection, schedule: Q04DX003 (ip), vehicle: Klucel (hydroxypropylcellulose) (HPC)",124 % of control
Cc1cn2ccccc2c[n+]1=O,T/C,"endpoint: mean survival time, dose: 5.0 mg/kg/injection, schedule: Q04DX003 (ip), vehicle: saline with Tween-80",103 % of control
same,T/C,"endpoint: mean survival time, dose: 10.0 mg/kg/injection, schedule: Q04DX003 (ip), vehicle: saline with Tween-80",108 % of control
same,T/C,"endpoint: mean survival time, dose: 20.0 mg/kg/injection, schedule: Q04DX003 (ip), vehicle: saline with Tween-80",97 % of control
